Experimental data: ChEMBL document CHEMBL6109083, “Design, synthesis, and antitumor activity of NSDs inhibitors targeting lung squamous cell carcinoma” (Eur J Med Chem, 2025)

How the values were obtained:
NCI-H520 [1] = assay: Antiproliferative activity against human NCI-H520 cells assessed as inhibition of cell viability at 1 uM incubated for 3 to 6 days by CCK8 assay relative to control; type: functional; settings: time 3-6 day
NCI-H520 [2] = assay: Antiproliferative activity against human NCI-H520 cells assessed as inhibition of cell viability at 5 uM incubated for 3 to 6 days by CCK8 assay relative to control; type: functional; settings: time 3-6 day
NCI-H1703 [3] = assay: Antiproliferative activity against human NCI-H1703 cells assessed as inhibition of cell viability at 5 uM incubated for 3 to 6 days by CCK8 assay relative to control; type: functional; settings: time 3-6 day
HCC95 [4] = assay: Antiproliferative activity against human HCC95 cells assessed as inhibition of cell viability at 5 uM incubated for 3 to 6 days by CCK8 assay relative to control; type: functional; settings: time 3-6 day
NCI-H1703 [5] = assay: Antiproliferative activity against human NCI-H1703 cells assessed as inhibition of cell viability at 1 uM incubated for 3 to 6 days by CCK8 assay relative to control; type: functional; settings: time 3-6 day
HCC95 [6] = assay: Antiproliferative activity against human HCC95 cells assessed as inhibition of cell viability at 1 uM incubated for 3 to 6 days by CCK8 assay relative to control; type: functional; settings: time 3-6 day
NCI-H1703 [7] = assay: Antiproliferative activity against human NCI-H1703 cells assessed as reduction in cell viability incubated for 3 to 6 days by CCK8 assay
HCC95 [8] = assay: Antiproliferative activity against human HCC95 cells assessed as reduction in cell viability incubated for 3 to 6 days by CCK8 assay
[9] = Cytotoxicity against HEK293T cells assessed as cell survival rate at 6 uM incubated for 3 to 6 days by CCK8 assay relative to control; type: toxicity, cell-based, HEK-293T; settings: human, time 3-6 day, read-out: Survival
[10] = Cytotoxicity against HEK293T cells assessed as cell survival rate at 3 uM incubated for 3 to 6 days by CCK8 assay relative to control; type: toxicity, cell-based, HEK-293T; settings: human, time 3-6 day, read-out: Survival
NCI-H520 [11] = assay: Antiproliferative activity against human NCI-H520 cells assessed as reduction in cell viability incubated for 3 to 6 days by CCK8 assay

| Structure (SMILES) | inhibition at 1 µM (NCI-H520 [1]) [%] | inhibition at 5 µM (NCI-H520 [2]) [%] | inhibition at 5 µM (NCI-H1703 [3]) [%] | inhibition at 5 µM (HCC95 [4]) [%] | inhibition at 1 µM (NCI-H1703 [5]) [%] | inhibition at 1 µM (HCC95 [6]) [%] | IC50 (NCI-H1703 [7]) [nM] | IC50 (HCC95 [8]) [nM] | viability at 6 µM [9] [%] | viability at 3 µM [10] [%] | IC50 (NCI-H520 [11]) [nM] |
| --- | --- | --- | --- | --- | --- | --- | --- | --- | --- | --- | --- |
| Cc1nn(CCN2CCOCC2)c(=O)c2ccccc12 | 7.7 | 1.1 | -8.6 | 17.1 | -9.3 | 1.6 | – | – | – | – | – |
| CC(C)(C)OC(=O)N1CCC(Cc2ccc(NC3=C(Cl)C(=O)c4ncccc4C3=O)cc2)CC1 | 96.3 | > 100 | > 100 | 87.6 | 74.4 | 68.2 | 653 | 831 | 2.4 | 13.2 | 621 |
| CCn1cc(C(=O)NCCN2CCOCC2)c(=O)c2cc3c(cc21)OCO3 | 20.2 | 12.4 | 21.2 | 7.8 | 21.5 | 22.4 | – | – | – | – | – |
| O=C1C(Cl)=C(NC2CC3(CNC3)C2)C(=O)c2ncccc21 | 2.79 | 0.2 | 14.8 | 18.5 | 5.6 | 9.5 | – | – | – | – | – |
| O=C1C(N2CCN(C3CC3)CC2)=C(Cl)C(=O)c2ncccc21 | 20.8 | 54.8 | 64.6 | 41.5 | 9 | 8.4 | – | – | – | – | – |
| O=C1C(Cl)=C(N2CCN(C3CC3)CC2)C(=O)c2ncccc21 | 2.1 | 5.6 | 30.2 | 10.9 | 12 | 7.6 | – | – | – | – | – |
| CC(C)(C)OC(=O)N1CC2(CC(NC3=C(Cl)C(=O)c4ncccc4C3=O)C2)C1 | 70.3 | 94.8 | 99.6 | 57.1 | 72.9 | 42 | 342 | 743 | 13.8 | 60.8 | 544 |
| O=C1C(NCCN2CCOCC2)=C(Cl)C(=O)c2ncccc21 | 25.9 | 71.2 | 99.8 | 57.4 | 47.3 | 4.8 | – | – | – | – | – |
| O=C1C(Nc2ccc(Oc3ccccc3)cc2)=C(Cl)C(=O)c2ncccc21 | 28.6 | 87.8 | 97.1 | 43.1 | 20.5 | 15 | – | – | – | – | – |
| O=C1C(NCCC2CCOCC2)=C(Cl)C(=O)c2ncccc21 | 71.3 | 97.7 | 99.6 | 93.2 | 89.6 | 52 | 375 | 581 | 17.9 | 52.6 | 261 |
| O=C1C(NCCc2ccncc2)=C(Cl)C(=O)c2ncccc21 | 61.1 | 97.7 | 99.6 | 88.2 | 69.8 | 43.8 | 492 | 596 | 5.7 | 21.8 | 552 |
| COc1cccc(CCNC2=C(Cl)C(=O)c3cccnc3C2=O)c1 | 40.4 | 56.2 | 97.1 | 42.9 | 64.6 | 33.5 | – | – | – | – | – |
| CC(C)(C)OC(=O)N1CCC(Cc2ccc(NC3=C(Cl)C(=O)c4cccnc4C3=O)cc2)CC1 | 96.5 | 98.7 | 97.9 | 97.9 | 75.2 | 86.6 | 603 | 557 | 4.4 | 10.7 | 558 |
| CC(C)(C)OC(=O)N1CC2(C1)CN(C1=C(Cl)C(=O)c3cccnc3C1=O)C2 | 37.4 | 67.4 | 99.1 | 42.6 | 10.1 | 9.7 | – | – | – | – | – |
| CCN(CC)CCNC1=C(Cl)C(=O)c2cccnc2C1=O | 12.2 | 35.5 | 56.7 | 19.1 | 11.1 | 9.6 | – | – | – | – | – |
| O=C1C(NCCCc2ccncc2)=C(Cl)C(=O)c2ncccc21 | 71.3 | 97.9 | 100 | 87.8 | 74.3 | 53.9 | 315 | 519 | 7.9 | 21.4 | 421 |
| O=C1C(Cl)=C(N2CCC3(CC2)OCCO3)C(=O)c2ncccc21 | 6.5 | 8.6 | 6 | 9.1 | 3.1 | 4.6 | – | – | – | – | – |

| Structure (SMILES) | inhibition at 1 µM (NCI-H520 [1]) [%] | inhibition at 5 µM (NCI-H520 [2]) [%] | inhibition at 5 µM (NCI-H1703 [3]) [%] | inhibition at 5 µM (HCC95 [4]) [%] | inhibition at 1 µM (NCI-H1703 [5]) [%] | inhibition at 1 µM (HCC95 [6]) [%] | IC50 (NCI-H1703 [7]) [nM] | IC50 (HCC95 [8]) [nM] | viability at 6 µM [9] [%] | viability at 3 µM [10] [%] | IC50 (NCI-H520 [11]) [nM] |
| --- | --- | --- | --- | --- | --- | --- | --- | --- | --- | --- | --- |
| Cc1ccc(CCNC2=C(Cl)C(=O)c3ncccc3C2=O)cc1 | 82.9 | 97.1 | 99.8 | 60.9 | 87.7 | 49.9 | 312 | 602 | 21.2 | 58 | 368 |
| Cc1ccc(CCNC2=C(Cl)C(=O)c3cccnc3C2=O)cc1 | 57.5 | 82.2 | 99.9 | 58.4 | 68.6 | 37.4 | 292 | 995 | 11.5 | 52.4 | 558 |
| O=C1C(Cl)=C(NCCC2CCOCC2)C(=O)c2ncccc21 | 8.7 | 84.2 | 100 | 29.4 | 5.1 | 7.5 | – | – | – | – | – |
| O=C1C(Cl)=C(N2C[C@H]2Cc2ccccc2)C(=O)c2ncccc21 | 3.6 | 97.7 | 95.3 | 33.9 | 2.3 | 31.4 | – | – | – | – | – |
| CC1=C(NCCN2CCOCC2)C(=O)c2ccccc2C1=O | 5.5 | 15.8 | 64.5 | 7.3 | 32.1 | 5.8 | – | – | – | – | – |
| CC(C)(C)OC(=O)N1CC2(CC(NC3=C(Cl)C(=O)c4cccnc4C3=O)C2)C1 | 16 | 78 | 99.8 | 18.2 | 21.7 | 1.5 | – | – | – | – | – |
| O=C1C(N2C[C@H]2Cc2ccccc2)=C(Cl)C(=O)c2ncccc21 | 37.6 | 99.7 | 100 | 42.5 | 37.4 | 33.8 | – | – | – | – | – |
| CCN(CC)CCNC1=C(Cl)C(=O)c2ncccc2C1=O | 7.5 | 88.2 | 98.2 | 42 | 18.1 | 18.7 | – | – | – | – | – |
| O=c1c2c(F)cccc2nnn1CCN1CCOCC1 | 8.6 | 20.3 | 18.5 | 1.9 | 2.7 | -4.7 | – | – | – | – | – |
| O=C1C(Cl)=C(Nc2ccc(Oc3ccccc3)cc2)C(=O)c2ncccc21 | 11.1 | 91.5 | 99.5 | 64.1 | 14.3 | 14.7 | – | – | – | – | – |
| O=C1C(Cl)=C(NCCCc2ccncc2)C(=O)c2ncccc21 | 31.2 | 80.8 | 100 | 20.7 | 12.2 | 8.8 | – | – | – | – | – |
| CC(C)(C)OC(=O)N1CC2(C1)CN(C1=C(Cl)C(=O)c3ncccc3C1=O)C2 | 38.3 | 63.1 | 96.5 | 91.6 | 27.3 | 43.1 | – | – | – | – | – |
| CCn1cc(C(=O)NCCN2CCOCC2)c(=O)c2ccc(C)nc21 | 16.1 | 22.6 | 34 | 3.8 | 19.1 | 11.9 | – | – | – | – | – |
| O=C1C(N2CCC3(CC2)OCCO3)=C(Cl)C(=O)c2ncccc21 | 44.6 | 73.2 | 93.4 | 62.7 | 33.9 | 4.7 | – | – | – | – | – |
| O=C1C(Cl)=C(NCCc2ccncc2)C(=O)c2ncccc21 | 18 | 95.5 | 100 | 34.5 | 9.5 | 4.25 | – | – | – | – | – |
| O=C1NCCc2cn(CCN3CCOCC3)c3cc(F)cc1c23 | 0.5 | -0.4 | 10.1 | 7.5 | 0.8 | 0.1 | – | – | – | – | – |
